Assay results taken from patent US20250099511A1, “PHARMACEUTICAL COMPOSITION FOR PREVENTING OR TREATING CANCER” (ENTEROBIOME INC., priority 2022, published 2025).
In brackets after ≈: the same amount, converted by molar mass. Where two headings read alike, the source gives them in different places.

What was measured:
Format in all cases: cell-based
[1] = test system: Faecalibacterium prausnitzii A2-165; experiment: MIC by broth microdilution (CLSI), type strain; details: for susceptibility category (S/I/R) by MIC breakpoints: strain A2-165; for MIC: test strain A2-165
[2] = test system: Faecalibacterium prausnitzii EB-FPYYK1; experiment: MIC by broth microdilution (CLSI); details: for susceptibility category (S/I/R) by MIC breakpoints: strain EB-FPYYK1; for MIC: test strain EB-FPYYK1
[3] = test system: Faecalibacterium prausnitzii EB-FPDK3; experiment: MIC by broth microdilution (CLSI); details: for susceptibility category (S/I/R) by MIC breakpoints: strain EB-FPDK3; for MIC: test strain EB-FPDK3
[4] = test system: Bacteroides thetiotaomicron ATCC 29741; experiment: MIC by broth microdilution (CLSI), QC strain
[5] = test system: Faecalibacterium prausnitzii EB-FPDK9; experiment: MIC by broth microdilution (CLSI); details: for susceptibility category (S/I/R) by MIC breakpoints: strain EB-FPDK9; for MIC: test strain EB-FPDK9
[6] = test system: Faecalibacterium prausnitzii EB-FPDK11; experiment: MIC by broth microdilution (CLSI); details: for susceptibility category (S/I/R) by MIC breakpoints: strain EB-FPDK11; for MIC: test strain EB-FPDK11
[7] = test system: Faecalibacterium prausnitzii strains of the present invention; experiment: Antimicrobial susceptibility, summary for all strains; details: all Faecalibacterium prausnitzii strains of Table 5
[8] = Faecalibacterium prausnitzii, A2165, read-out: MIC
[9] = Faecalibacterium prausnitzii, EBFPYYK1, read-out: MIC
[10] = Faecalibacterium prausnitzii, EBFPDK3, read-out: MIC
[11] = Faecalibacterium prausnitzii, EBFPDK9, read-out: MIC
[12] = Faecalibacterium prausnitzii, EBFPDK11, read-out: MIC

For `O=C(N[C@H](CO)[C@H](O)c1ccc([N+](=O)[O-])cc1)C(Cl)Cl` [CHL, chloramphenicol], the “susceptibility category (S/I/R) by MIC breakpoints” value (“susceptibility category (S/I/R)” below) ([1]; CHL breakpoints) was “(R) (≥32)”, the MIC [1, 8] was 64 µg/mL (≈ 198 µM) and the “susceptibility category (S/I/R)” value ([2]; CHL breakpoints) was “(R) (≥32)”. The MIC [2, 9] was 256 µg/mL (≈ 792 µM), the “susceptibility category (S/I/R)” value ([3]; CHL breakpoints) was “(S) (≤8)” and the MIC [3, 10] was 8 µg/mL (≈ 24.8 µM). The MIC ([4]; Bacteroides, ATCC29741) was 8 µg/mL (≈ 24.8 µM), the “susceptibility category (S/I/R)” value ([5]; CHL breakpoints) was “(R) (≥32)” and the MIC [5, 11] was 32 µg/mL (≈ 99 µM). The “susceptibility category (S/I/R)” value ([6]; CHL breakpoints) was “(S) (≤8)” and the MIC [6, 12] was 8 µg/mL (≈ 24.8 µM).
For `CCC[C@@H]1C[C@@H](C(=O)N[C@@H]([C@H]2O[C@H](SC)[C@H](O)[C@@H](O)[C@H]2O)[C@H](C)Cl)N(C)C1` [CLI, clindamycin], the “susceptibility category (S/I/R)” value ([1]; CLI breakpoints) was “(S) (≤2)”, the MIC [1, 8] was at most 0.125 µg/mL and the “susceptibility category (S/I/R)” value ([2]; CLI breakpoints) was “(S) (≤2)”. For the same compound, the MIC [2, 9] was at most 0.125 µg/mL, the “susceptibility category (S/I/R)” value ([3]; CLI breakpoints) was “(S) (≤2)” and the MIC [3, 10] was at most 0.125 µg/mL. For the same compound, the “susceptibility category (S/I/R)” value ([5]; CLI breakpoints) was “(S) (≤2)”, the MIC [5, 11] was at most 0.125 µg/mL and the “susceptibility category (S/I/R)” value ([6]; CLI breakpoints) was “(S) (≤2)”. For the same compound, the MIC [6, 12] was at most 0.125 µg/mL.
`CO/N=C(\C(=O)N[C@@H]1C(=O)N2C(C(=O)O)=CCS[C@H]12)c1csc(N)n1` [CTZ, ceftizoxime] was tested, and the “susceptibility category (S/I/R)” value ([1]; CTZ breakpoints) was “(I) (64)”, the MIC [1, 8] was 64 µg/mL (≈ 167 µM) and the “susceptibility category (S/I/R)” value ([2]; CTZ breakpoints) was “(R) (≥128)”. The MIC [2, 9] was 128 µg/mL (≈ 334 µM), the “susceptibility category (S/I/R)” value ([3]; CTZ breakpoints) was “(S) (≤32)” and the MIC [3, 10] was 16 µg/mL (≈ 41.7 µM). The MIC ([4]; Bacteroides, ATCC29741) was 16 µg/mL (≈ 41.7 µM), the “susceptibility category (S/I/R)” value ([5]; CTZ breakpoints) was “(R) (≥128)” and the MIC [5, 11] was 128 µg/mL (≈ 334 µM). For the same compound, the “susceptibility category (S/I/R)” value ([6]; CTZ breakpoints) was “(R) (≥128)” and the MIC [6, 12] was 128 µg/mL (≈ 334 µM).
With `C[C@@H](O)[C@H]1C(=O)N2C(C(=O)O)=C(S[C@@H]3CN[C@H](C(=O)N(C)C)C3)[C@H](C)[C@H]12` [MEM, meropenem] the MIC [1, 8] was over 64 µg/mL, the “susceptibility category (S/I/R)” value ([1]; MEM breakpoints) was “(R) (≥16)” and the MIC [2, 9] was over 64 µg/mL. The “susceptibility category (S/I/R)” value ([2]; MEM breakpoints) was “(R) (≥16)”, the MIC [3, 10] was over 64 µg/mL and the “susceptibility category (S/I/R)” value ([3]; MEM breakpoints) was “(R) (≥16)”. The MIC ([4]; Bacteroides, ATCC29741) was 0.5 µg/mL (≈ 1.3 µM), the MIC [5, 11] was over 64 µg/mL and the “susceptibility category (S/I/R)” value ([5]; MEM breakpoints) was “(R) (≥16)”. For the same compound, the MIC [6, 12] was over 64 µg/mL and the “susceptibility category (S/I/R)” value ([6]; MEM breakpoints) was “(R) (≥16)”.
`Cc1ncc([N+](=O)[O-])n1CCO` [MTZ, metronidazole] was tested, and the MIC [1, 8] was 4 µg/mL (≈ 23.4 µM), the “susceptibility category (S/I/R)” value ([1]; MTZ breakpoints) was “(S) (≤8)” and the “susceptibility or resistance of all the strains to the antibiotic” value [7] was “susceptibility”. The MIC [2, 9] was 2 µg/mL (≈ 11.7 µM), the “susceptibility category (S/I/R)” value ([2]; MTZ breakpoints) was “(S) (≤8)” and the MIC [3, 10] was 1 µg/mL (≈ 5.84 µM). The “susceptibility category (S/I/R)” value ([3]; MTZ breakpoints) was “(S) (≤8)”, the MIC ([4]; Bacteroides, ATCC29741) was 2 µg/mL (≈ 11.7 µM) and the MIC [5, 11] was under 0.25 µg/mL. For the same compound, the “susceptibility category (S/I/R)” value ([5]; MTZ breakpoints) was “(S) (≤8)”, the MIC [6, 12] was 0.5 µg/mL (≈ 2.92 µM) and the “susceptibility category (S/I/R)” value ([6]; MTZ breakpoints) was “(S) (≤8)”.
For `COc1c(N2C[C@@H]3CCCN[C@@H]3C2)c(F)cc2c(=O)c(C(=O)O)cn(C3CC3)c12` [MXF, moxifloxacin], the MIC [1, 8] was 16 µg/mL (≈ 39.9 µM), the “susceptibility category (S/I/R)” value ([1]; MXF breakpoints) was “(R) (≥8)” and the MIC [2, 9] was over 32 µg/mL. The “susceptibility category (S/I/R)” value ([2]; MXF breakpoints) was “(R) (≥8)”, the MIC [3, 10] was over 32 µg/mL and the “susceptibility category (S/I/R)” value ([3]; MXF breakpoints) was “(R) (≥8)”. For the same compound, the MIC ([4]; Bacteroides, ATCC29741) was 8 µg/mL (≈ 19.9 µM), the MIC [5, 11] was 32 µg/mL (≈ 79.7 µM) and the “susceptibility category (S/I/R)” value ([5]; MXF breakpoints) was “(R) (≥8)”. The MIC [6, 12] was 32 µg/mL (≈ 79.7 µM) and the “susceptibility category (S/I/R)” value ([6]; MXF breakpoints) was “(R) (≥8)”.
With piperacillin-tazobactam [PTZ] the “susceptibility category (S/I/R)” value ([1]; PTZ breakpoints) was “(R) (≥128/4)”, the MIC [1] was >256/4 and the “susceptibility category (S/I/R)” value ([2]; PTZ breakpoints) was “(R) (≥128/4)”. For the same compound, the MIC [2] was >256/4, the “susceptibility category (S/I/R)” value ([3]; PTZ breakpoints) was “(S) (≤32/4)” and the MIC [3] was 32/4. For the same compound, the MIC ([4]; QC ATCC 29741) was 8/4, the “susceptibility category (S/I/R)” value ([5]; PTZ breakpoints) was “(S) (≤32/4)” and the MIC [5] was 32/4. For the same compound, the “susceptibility category (S/I/R)” value ([6]; PTZ breakpoints) was “(R) (≥128/4)” and the MIC [6] was >256/4.
